“And” between values parts separate entries of the source, which are not always exact repeats. Equal values may be shown once. Read-outs that look alike come from different tables or passages of the source.
Assays:
[1] = system: HDV; experiment: in vitro HDV infection of NTCP-HepG2 cells; assay type: cell-based; settings: 5–300 µM (2, 19) or 5–600 µM (4, 17), 6 h with 700 genome equivalents/cell, HDAg immunostaining day 9
Experimental: At day 9 post infection, cells were fixed and an immunostaining against the HDAg was performed, as a marker of HDV infection. The number of infected cells per well was determined by fluorescence microscopy. NTCP-HepG2 cells incubated without inhibitor were used as control (set to 100% infection rate). Infection experiments in the presence of 0.5 µM myr-preS1_2-48 peptide served as control for the 0% infection rate. Scale bars: 100 µm. Data represent means ± SEM of three independent experiments each with triplicate determinations (n = 9). […] Data were combined from two independent experiments, each with quadruplicate determinations (n = 8). (h) Cell viability was determined with an LDH cytotoxicity assay. HepG2 cells treated with HGM w/o test compound were used as positive control and lysed cells as negative control.
For infection experiments NTCP-HepG2 cells were cultured in 96-well plates in Hepatocyte Growth Medium (HGM) consisting of William’s E Medium (Thermo Fisher Scientific) containing 2% bovine serum albumin (BSA, Roth), 2 mM L-Glutamin (Thermo Fisher Scientific), 100 µg/ml gentamicin (Thermo Fisher Scientific), 10 nM dexamethasone (Sigma-Aldrich), 1 mM sodium pyruvate (Thermo Fisher Scientific), 1 × Insulin-Transferrin-Selen (Thermo Fisher Scientific), 2% DMSO (Merck, Darmstadt, Germany), 4% polyethylene glycol (Sigma-Aldrich) and 2 µg/ml doxycycline (Sigma-Aldrich) as reported. Subsequently, cells were washed with DMEM and cultured in HGM supplemented with 2% DMSO, 2% BSA and 2 µg/ml doxycycline. […] HDV stock solved in 20 µl HGM per well was added for infection and cells were incubated for 6 h with final concentration of 700 genome equivalents/cell of HDV particles. HDV production was done in vitro as described before[55],[56]. RT-qPCR was performed to determine genome equivalents. Every three days medium was changed until cells were fixed at 9 days post infection with 3% paraformaldehyde (Sigma-Aldrich) in PBS, for 30 min at room temperature (RT). Cells were permeabilized with 0.2% Triton X 100 (Roth) in PBS for 30 min at RT, and blocked by incubation with 5% bovine serum albumin (Roth) in PBS, for 30 min at RT. Then, cells were immunostained with purified human anti-HDV-positive serum at 37 °C for 1 h (1:400 dilution). Goat anti-human IgG secondary antibody coupled to Alexa Fluor fluorophore (1:400 dilution, Thermo Fisher Scientific) was added for 1 h at 37 °C for detection of Hepatitis Delta antigen (HDAg) as described before.

[2] = molecular target: T1, NTCP (Homo sapiens, UniProt Q14973); experiment: [3H]preS1 (myr-preS1_2-48 lipopeptide) binding inhibition in NTCP-HEK293 cells; settings: for IC50: NTCP-HEK293 cells; for Selectivity index: ratio of mean IC50 [3H]TC transport inhibition / IC50 [3H]preS1 binding inhibition
T1 construct: expressed in transfected cells
T1 sequence (Q14973 1-349): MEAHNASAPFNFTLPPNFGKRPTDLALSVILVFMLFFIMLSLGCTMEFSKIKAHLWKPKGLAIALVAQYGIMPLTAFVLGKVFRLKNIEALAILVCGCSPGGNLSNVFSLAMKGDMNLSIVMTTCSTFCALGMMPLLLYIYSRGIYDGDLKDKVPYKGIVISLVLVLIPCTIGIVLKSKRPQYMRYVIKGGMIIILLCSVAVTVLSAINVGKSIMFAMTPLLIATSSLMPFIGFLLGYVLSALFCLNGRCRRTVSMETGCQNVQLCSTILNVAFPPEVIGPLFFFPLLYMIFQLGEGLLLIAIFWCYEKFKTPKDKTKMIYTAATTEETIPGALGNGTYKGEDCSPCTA
Experimental: (§1) The major goal of the present study was to analyze in parallel the effect of inhibitors on both, bile acid transport via NTCP and myr-preS1_2-48 lipopeptide binding to NTCP in a cell culture system. […] NTCP-HEK293 cells were seeded onto 96-well plates and were incubated with tetracycline in order to induce expression of the human NTCP protein. […] Experiments were performed with solvent alone (set to 100%) and with increasing concentrations of the indicated inhibitors. […] Half maximal inhibitory concentrations (IC50) were calculated by nonlinear regression analysis using the equation log(inhibitor) versus response (GraphPad Prism). […] Data represent means ± SD of quadruplicate determinations of representative experiments. […] In parallel, [^3H]preS1 peptide binding experiments were performed with a tritium-labelled myr-preS1_2-48 lipopeptide -HBV subgenotype D3- that was purchased from Pharmaron (120 Ci/mmol, 1 mCi/ml, Cardiff, UK). […] Experiments were stopped after 10 min by two-times washing with ice-cold PBS. For 0% uptake/binding control, the NTCP-HEK293 cells were not induced with tetracycline (-tet). […] Transport rates and [^3H]preS1 binding were determined in counts per minute (cpm). […] IC50 values were calculated from quadruplicate determinations by GraphPad Prism 6 (GraphPad, San Diego, CA, USA).

[3] = molecular target: T1, NTCP; experiment: [3H]TC transport (bile acid uptake) inhibition in NTCP-HEK293 cells; assay type: cell-based; settings: for [3H]TC transport inhibition (in words): 0.1–1,000 µM
Experimental: as §1

[4] = system: rats; settings: single i.p. application of 400 mg/kg; cited from earlier work
[5] = system: mice; settings: cited from earlier work
[6] = system: HBV; set-up: method as in earlier work; settings: ref 25 (Shimura et al.); read-out: IC50 in vitro HBV infection; cited from earlier work
[7] = molecular target: T1, NTCP; set-up: method as in earlier work; settings: ref 25 (Shimura et al.); read-out: IC50 bile acid transport inhibition; cited from earlier work
[8] = mean IC50, 5 nM [3H]preS1, standard pH 7.4, read-out: IC50 [3H]preS1 binding inhibition
[9] = 95% confidence interval, inhibition of 1 µM [3H]TC uptake, NTCP-HEK293 cells, 10 min, 37 °C, read-out: IC50 ([3H]TC uptake)
[10] = 95% confidence interval, inhibition of 5 nM [3H]preS1 binding, 10 min, 37 °C, read-out: IC50 ([3H]preS1 binding)
[11] = IC50 ([3H]preS1 binding), 95% confidence interval, inhibition of 5 nM [3H]preS1 binding, 10 min, 37 °C
[12] = mean IC50, […] µM [3H]TC, NTCP-HEK293 cells, standard pH 7.4, read-out: IC50 [3H]TC transport inhibition

Row | SMILES | Selectivity index [2] | IC50 [3, 9] [µM] | IC50 [2, 10] [µM] | other results
1 | C=C(C)[C@@H]1CC[C@]2(C(=O)N[C@@H](CC(=O)OC)C(=O)OC)CC[C@]3(C)[C@H](CC[C@@H]4[C@@]5(C)CCC(=O)C(C)(C)[C@@H]5CC[C@]43C)[C@@H]12 [Compound 19, Betulonoyl dimethyl-L-aspartate] | 28 | 298 to 1430 | – | inhibition of in vitro HDV infection [1]: significantly blocked; IC50 [2, 8]: 11 to 50 µM
2 | C=C(C)[C@@H]1CC[C@]2(C(=O)O)CC[C@]3(C)[C@H](CC[C@@H]4[C@@]5(C)CC[C@H](O)C(C)(C)[C@@H]5CC[C@]43C)[C@@H]12 [Compound 4, Betulinic acid] | – | – | – | inhibition of in vitro HDV infection [1]: significantly blocked; toxic effects in rats [4]: no toxic effects were observed; toxic effects in mice, repeated dose ([5]; 100 mg/kg i.p. every 3–4 days for a total of six treatments): no toxic effects were observed; toxic effects in mice, single dose ([5]; 500 mg/kg i.p. once): no toxic effects were observed
3 | C=C(C)[C@@H]1CC[C@]2(COC(=O)CBr)CC[C@]3(C)[C@H](CC[C@@H]4[C@@]5(C)CC[C@H](O)C(C)(C)[C@@H]5CC[C@]43C)[C@@H]12 [Compound 7, 28-O-(Bromoacetyl)betulin] | 11 | 63.5 to 126 | 5.28 to 11.1 | –
4 | C=C(C)[C@@H]1CC[C@]2(C)CC[C@]3(C)[C@H](CC[C@@H]4[C@@]5(C)CCC(=O)C(C)(C)[C@@H]5CC[C@]43C)[C@@H]12 [Compound 17, Lupenone] | – | – | – | inhibition of in vitro HDV infection [1]: significantly blocked; IC50 [2, 11]: 13.1 to 35.5 µM; IC50 ([2]; IC50 [3H]preS1 binding inhibition, mean IC50, 5 nM [3H]preS1, standard pH 7.4): 11 to 50 µM; IC50 ([3]; read-out: IC50 ([3H]TC uptake)): 146 to 397 µM
5 | C=C(C)[C@@H]1CC[C@]2(COC(=O)/C=C/c3ccccc3)CC[C@]3(C)[C@H](CC[C@@H]4[C@@]5(C)CC[C@H](O)C(C)(C)[C@@H]5CC[C@]43C)[C@@H]12 [Compound 15, 28-O-Cinnamoylbetulin] | 7 | 72.4 to 236 | 10.9 to 31.8 | –
6 | C=C(C)[C@@H]1CC[C@]2(CO)CC[C@]3(C)[C@H](CC[C@@H]4[C@@]5(C)CC[C@H](OC(C)=O)C(C)(C)[C@@H]5CC[C@]43C)[C@@H]12 [Compound 22, 3-O-Acetylbetulin] | 2 | 36.5 to 152 | 20.6 to 87.4 | –
7 | CC1(C)CC[C@]23CC[C@]4(C)[C@H](CC[C@@H]5[C@@]6(C)CC[C@H](O)C(C)(C)[C@@H]6CC[C@]54C)[C@H]2[C@H]1OC3 [Compound 29, Allobetulin] | – | – | – | IC50 [2, 11]: 9.67 to 20.8 µM; IC50 ([3]; read-out: IC50 ([3H]TC uptake)): 212 to 675 µM
8 | C=C(C)[C@@H]1CC[C@]2(COC(=O)c3cccnc3)CC[C@]3(C)[C@H](CC[C@@H]4[C@@]5(C)CC[C@H](O)C(C)(C)[C@@H]5CC[C@]43C)[C@@H]12 [Compound 14, 28-O-Nicotinoylbetulin] | 5 | 185 to 532 | 36.5 to 109 | –
9 | C=C(C)[C@@H]1CC[C@]2(COC(=O)CCc3ccccc3)CC[C@]3(C)[C@H](CC[C@@H]4[C@@]5(C)CC[C@H](OC(=O)CCc6ccccc6)C(C)(C)[C@@H]5CC[C@]43C)[C@@H]12 [Compound 16, 3,28-Di-O-(dihydrocinnamoyl)betulin] | 6 | 176 to 1230 | 24.8 to 229 | –
10 | C=C(C)[C@@H]1CC[C@]2(C(=O)O)CC[C@]3(C)[C@H](CC[C@@H]4[C@@]5(C)CC[C@H](OC(=O)CC(C)(C)CC(=O)O)C(C)(C)[C@@H]5CC[C@]43C)[C@@H]12 [Compound 11, 3-O-(3,3-Dimethylglutaroyl)betulinic acid] | 1 | 3.08 to 4.53 | 3 to 5.21 | –
11 | C=C(C)[C@@H]1CC[C@]2(COC(=O)CCC(=O)O)CC[C@]3(C)[C@H](CC[C@@H]4[C@@]5(C)CC[C@H](OC(=O)CCC(=O)O)C(C)(C)[C@@H]5CC[C@]43C)[C@@H]12 [Compound 9, 3,28-Di-O-succinoylbetulin] | 1 | 3.11 to 5.02 | 2.94 to 10.1 | IC50 [2, 8]: < 10 µM
12 | C=C(CO)C1CCC2(COC(C)=O)CCC3(C)C(CCC4C5(C)CCC(OC(C)=O)C(C)(C)C5CCC43C)C12 (stereo not shown) [Compound 25, 3,28-Di-O-acetyl-29-hydroxybetulin] | – | > 1000 | 5.29 to 13 | IC50 [2, 8]: < 10 µM and 8 µM; [3H]TC transport inhibition (in words) ([3]; NTCP-HEK293 cells): no transport inhibition at all; IC50 [3, 12]: > 1000 µM
13 | CC=CCC(C)C(O)C1C(=O)NC(CC)C(=O)N(C)C(OCCOC)C(=O)N(C)C(CC(C)(C)O)C(=O)NC(C(C)C)C(=O)N(C)C(CC(C)C)C(=O)NC(C)C(=O)NC(C)C(=O)N(C)C(CC(C)C)C(=O)N(C)C(CC(C)C)C(=O)N(C)C(C(C)C)C(=O)N1C (stereo not shown) [SCY995] | – | – | – | IC50 [6]: < 8 µM; IC50 [7]: > 25 µM
14 | CC(=O)OC[C@]12CCC(C(C)C)=C1[C@H]1CC[C@@H]3[C@@]4(C)CC[C@H](OC(C)=O)C(C)(C)[C@@H]4CC[C@@]3(C)[C@]1(C)CC2 [Compound 28, 3,28-Di-O-acetyl-18,19-dehydro-20,29-dihydrobetulin] | > 16 | > 1000 | 30 to 133 | [3H]TC transport inhibition (in words) ([3]; NTCP-HEK293 cells): no transport inhibition at all; IC50 [3, 12]: > 1000 µM
15 | C=C(C)C1CCC2(CO)CCC3(C)C(CCC4C5(C)CCC(OC(=O)C=Cc6ccc(O)c(O)c6)C(C)(C)C5CCC43C)C12 (stereo not shown) [Compound 27, 3-O-Caffeoylbetulin] | 22 | 85 to 195 | 3.35 to 10 | IC50 [2, 8]: 6 µM

Source: publication PMC7729925, “Selective hepatitis B and D virus entry inhibitors from the group of pentacyclic lupane-type betulin-derived triterpenoids” (Scientific Reports, 2020)
